Experimental data from US20240207265A1, “TREATMENT OF CNS DISEASES WITH sGC STIMULATORS” (Tisento Therapeutics Inc., priority 2021, published 2024).

Legend:
normotensive rats = assay: Blood pressure effects in normotensive rats after acute oral dose; assay type: in vivo, rat; conditions: for Peak ΔVMAP (mm Hg): sodium salt in Milli-Q water, vehicle-adjusted MAP; for Time at Peak: time of peak ΔVMAP
Source text: Male, normotensive Sprague Dawley rats were purchased from Charles River Laboratories. These rats have indwelling femoral artery catheters installed. Animals were harnessed to a tether system and attached to pressure transducers to monitor cardiovascular (CV) parameters, specifically mean arterial pressure (MAP) and heart rate (HR). Animals were acclimated to the system overnight and baseline CV parameters collected. […] A blood sample was collected from each animal through the catheter line at pre-dose and 2 hours post-dose for compound concentration quantification. Hemodynamic measures were recorded for ten hours post-dose. Fifty-four male rats were used for these studies and they were ordered to be received at a body weight range of 250-275 grams. They were single housed under controlled conditions of temperature (21±1° C.), relative humidity (36±1%) and placed in a 12-hr light-dark cycle (lights on at 6:00 AM and off at 6:00 PM) room at SmartLabs vivarium (21 Erie Street, Cambridge, MA) under protocol MIL-110. Animals were allowed ad libitum access to chow (LabDiet Prolab Isopro RMH 3000, St. Louis, MO) and water. Two sets of studies were carried out. […] […] Formulations prepared were thawed less than 4 hours before dosing and stored at room temperature or were made less than 2 hours before dosing and stored at room temperature.
This study utilized ADInstruments LabChart (v8) to collect hemodynamic data from conscious, freely moving rats tethered to a blood pressure transducer (Harvard Apparatus cat #APT300). Following an overnight acclimation to the tether and pressure transducer, animals were dosed following a 1-hr baseline recording period. Animals were administered a single oral (P.O.) dose of the sodium salt form of Compound I-14 or vehicle at a dose volume of 10 mL/kg. Data collection was continued for 10 hours post-dose.
ADInstruments LabChart (v8) was used to monitor and export hemodynamic data. Blood pressure and heart rate were continuously monitored, and data were collected at 1000 data points per second then averaged into 10-minute bins for analysis. Change from baseline MAP (ΔBMAP) and HR (ΔBHR) were calculated using the pre-dose baseline averaged over the 1-hr period prior to dosing using Microsoft Excel for Microsoft 365. This 10-minute bin dataset was used to determine peak ΔVMAP, time peak ΔVMAP, peak ΔVHR and time of peak ΔVHR. The dataset was further consolidated into 1-hr bins for the MAP and HR figures and the analysis of ΔBMAP, ΔBMAP, and ΔBHR. The definitions of these terms/abbreviations are summarized below:
Statistical analyses were performed in Graphpad Prism (v8). Significance, as compared to vehicle-treated rats, for ΔBMAP and ΔBHR data was determined by 2-way repeated measures ANOVA followed by a Dunnett's multiple comparisons test, if there was a missing data point, a mixed-effect analysis was utilized. Vehicle-adjusted MAP (ΔVMAP) was calculated by subtracting ΔBMAP of the vehicle group from the ΔBMAP of each dose group at each timepoint. Vehicle-adjusted HR (ΔVHR) was calculated in a similar manner to ΔVMAP.
Analogous studies to the ones described above were carried out with Compound I-20. […] A blood sample was collected from each animal through the catheter line at pre-dose and 2 hours post-dose for compound concentration quantification. Hemodynamic measures were recorded for ten hours post-dose.

[1] = Non-human primate CSF pharmacokinetics (Study A); assay type: in vivo, Cynomolgus monkeys; conditions: female, cynomolgus monkey, NHP CSF (cisterna magna)/unbound plasma, sodium salt
Description: PK in NHP was determined following oral dosing (PO). A group of 4 female Cynomolgus monkeys were used for studying each compound. Compound I-20 sodium salt was formulated as a 0.06 mg/mL solution in MilliQ water. Compound I-14 sodium salt was formulated as 0.2 mg/mL solution in MilliQ water. Formulations were shipped frozen on dry ice and then thawed and mixed thoroughly prior to dosing. PO doses of 1 mg/kg for Compound I-14 and 0.3 mg/kg for Compound I-20 were administered by oral gavage.
Plasma and CSF samples were collected as follows: samples of CSF were collected at 3 and 24 hours post PO dosing. CSF samples (0.125 mL) were collected at the cisterna magna via direct needle puncture by direct dilution. Blood samples (0.8 mL) were collected from a peripheral vein at 0, 0.25, 0.5, 1, 2, 3, 6, 8, […], 24, 32 and 48 or 72 hours. These samples were kept on ice until processed for plasma. Blood samples were protein precipitated using acetonitrile. Plasma was directly transferred to individual tubes (0.125 mL) and K2EDTA was used as the anticoagulant. Plug caps were placed on the tubes and the tubes frozen at approximately −70° C. and stored until analysis. Plasma and CSF was collected and analyzed for the presence of compound.
Plasma and CSF samples were analyzed using liquid chromatography (LC) with tandem mass spectrometric detection (MS/MS) using positive electrospray ionization. The standard curve range was from 0.1 to 1000 ng/mL.
The geometrical means for the values obtained for the 4 animals in each compound's study was obtained for concentrations in CSF and in Plasma, respectively.
Kp,uu is defined as the concentration ratio of unbound drug in CSF to unbound drug in plasma. Unbound drug in plasma (or free plasma concentration) is calculated by multiplying the total plasma concentration by the unbound fraction as determined by plasma protein binding. The CSF concentration is then divided by the free plasma concentration to determine the Kp,uu. (See e.g., Di et al., J. Med. Chem., 56, 2-12 (2013))

Compound	maximal reduction of MAP from baseline (ΔBMAP) (normotensive rats; formulated in PEG400, 10 mg/kg) [mm Hg]	time after dosing of maximal/peak ΔBMAP (normotensive rats; formulated in PEG400, 10 mg/kg) [min]	Kp uu at 3 h ([1]; PO 1 mg/kg)	Kp uu at 24 h ([1]; PO 1 mg/kg)	Peak ΔVMAP (mm Hg) (normotensive rats; 1 mg/kg single oral dose)	Time at Peak (normotensive rats; 1 mg/kg single oral dose) [min]	Peak ΔVMAP (mm Hg) (normotensive rats; 3 mg/kg single oral dose)	Time at Peak (normotensive rats; 3 mg/kg single oral dose) [min]	Peak ΔVMAP (mm Hg) (normotensive rats; 10 mg/kg single oral dose)	Time at Peak (normotensive rats; 10 mg/kg single oral dose) [min]	Peak ΔVMAP (mm Hg) (normotensive rats; 30 mg/kg single oral dose)	Time at Peak (normotensive rats; 30 mg/kg single oral dose) [min]	effect on MAP from baseline and as adjusted from vehicle (normotensive rats; single oral dose 3, 10, and 30 mg/kg)	no effect dose on ΔBMAP (normotensive rats; single oral dose, main effect analysis, simple effects analysis and AOC) [mg/kg]	Kp uu at 3 h ([1]; PO 0.3 mg/kg)	Kp uu at 24 h ([1]; PO 0.3 mg/kg)	peak ΔBMAP (normotensive rats; formulated in PEG400, 10 mg/kg) [mm Hg]
Oc1nc(-c2cn3ccnc3c(Cc3cccc(F)c3F)n2)ncc1F [Compound I-4, 2-(8-(2,3-Difluorobenzyl)imidazo[1,2-a]pyrazin-6-yl)-5-fluoropyrimidin-4-ol]	20	50	–	–	–	–	–	–	–	–	–	–	–	–	–	–	–
Cc1cc(F)c(Cc2nc(-c3ncc(F)c(O)n3)cn3ccnc23)cc1F [Compound I-14, 5-fluoro-2-(8-(2,5-difluoro-4-methylbenzyl)imidazo[1,2-a]pyrazin-6-yl)pyrimidin-4-ol]	–	–	2 to 3	> 3	−6.2	90	−10.1	70	−22.3	30	−24.4	30	lowered MAP from baseline and as adjusted from vehicle	1	–	–	–
Oc1nc(-c2cn3ccnc3c(Cc3cc(F)ccc3F)n2)ncc1F [Compound I-20, 5-fluoro-2-(8-(2,5-difluorobenzyl)imidazo[1,2-a]pyrazin-6-yl)pyrimidin-4-ol]	–	42	–	–	−14.3	20	−19.2	20	−20.2	30	−38.1	30	–	–	≤ 1	1 to 2	−26
